Like-named read-outs stand apart in the source and are kept apart here.
Columns and labels:
Conditions in all cases: trans-stimulation, solute 2 mM
non-expressing oocytes = type: cell-based, Xenopus laevis
Procedure, shortened: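 Oocytes (ten per treatment, ≥4 independent frogs/days) were preloaded by injecting VF-6 in 25 nL ND96 at pH 5.0, 5.5, 6.0 or 7.0, or Na^+-free choline buffer, then uptake run 1.5 h, 27.5 °C, ND96 pH 5.5 by default. Internal concentrations assumed ~400 nL oocyte volume.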

PfNT1 = biological target: T1, PfNT1 (Plasmodium falciparum, UniProt Q8IDM6); experiment: cell-based; type: cell-based
T1 construct: expressed in transfected cells; host or cells: Xenopus laevis oocytes (stage V-VI), cRNA-injected
Procedure, shortened: (§1)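 Transport measured in Xenopus oocytes expressing the transporters, 1.5 h at 27.5 °C in ND96 pH 5.5 unless noted. For trans-stimulation, VF-6 injected in 25 nL ND96 at pH 5.0–7.0 or Na^+-free (choline) buffer; intracellular levels based on ~400 nL oocyte volume. Ten oocytes per treatment, ≥4 experiments.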

PfCRT^Dd2 = PfCRT^Dd2 (Plasmodium falciparum, UniProt Q9N623, A220S/I356T/K76T/M74I/N326S/N75E/Q271E/R371I); experiment: cell-based; type: cell-based
Procedure, shortened: as §1

PfCRT^Ecu1110 = PfCRT^Ecu1110 (Plasmodium falciparum, UniProt Q9N623, A220S/I356L/K76T/N326D); experiment: cell-based; type: cell-based
Procedure, shortened: as §1

PfCRT^3D7 = PfCRT^3D7 (Plasmodium falciparum, UniProt Q8IBZ9); experiment: cell-based; type: cell-based
Procedure, shortened: as §1

T1 sequence (Q8IDM6 whole entry): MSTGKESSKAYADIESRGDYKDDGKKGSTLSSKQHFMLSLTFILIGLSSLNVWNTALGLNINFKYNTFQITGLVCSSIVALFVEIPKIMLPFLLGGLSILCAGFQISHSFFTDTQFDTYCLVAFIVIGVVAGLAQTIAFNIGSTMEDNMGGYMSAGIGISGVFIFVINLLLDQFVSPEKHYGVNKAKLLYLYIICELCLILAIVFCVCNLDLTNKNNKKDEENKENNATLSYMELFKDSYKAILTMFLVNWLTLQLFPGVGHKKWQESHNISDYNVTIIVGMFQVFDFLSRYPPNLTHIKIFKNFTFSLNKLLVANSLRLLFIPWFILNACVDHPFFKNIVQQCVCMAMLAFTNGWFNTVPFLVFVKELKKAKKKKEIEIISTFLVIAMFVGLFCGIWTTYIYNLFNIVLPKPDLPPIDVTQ
Chain of PfCRT^Dd2 (Q9N623 whole entry A220S/I356T/K76T/M74I/N326S/N75E/Q271E/R371I): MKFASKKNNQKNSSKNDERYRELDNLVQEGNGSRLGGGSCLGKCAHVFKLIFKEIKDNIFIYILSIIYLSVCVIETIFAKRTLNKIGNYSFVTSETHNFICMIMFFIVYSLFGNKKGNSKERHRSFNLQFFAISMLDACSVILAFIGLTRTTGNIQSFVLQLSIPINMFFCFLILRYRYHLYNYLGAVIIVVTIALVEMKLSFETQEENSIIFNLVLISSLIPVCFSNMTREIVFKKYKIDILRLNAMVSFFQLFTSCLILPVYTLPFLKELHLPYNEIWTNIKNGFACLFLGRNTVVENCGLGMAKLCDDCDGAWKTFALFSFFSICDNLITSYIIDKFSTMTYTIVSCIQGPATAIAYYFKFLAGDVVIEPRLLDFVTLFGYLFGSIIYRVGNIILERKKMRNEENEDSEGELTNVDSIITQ
Chain of PfCRT^Ecu1110 (Q9N623 whole entry A220S/I356L/K76T/N326D): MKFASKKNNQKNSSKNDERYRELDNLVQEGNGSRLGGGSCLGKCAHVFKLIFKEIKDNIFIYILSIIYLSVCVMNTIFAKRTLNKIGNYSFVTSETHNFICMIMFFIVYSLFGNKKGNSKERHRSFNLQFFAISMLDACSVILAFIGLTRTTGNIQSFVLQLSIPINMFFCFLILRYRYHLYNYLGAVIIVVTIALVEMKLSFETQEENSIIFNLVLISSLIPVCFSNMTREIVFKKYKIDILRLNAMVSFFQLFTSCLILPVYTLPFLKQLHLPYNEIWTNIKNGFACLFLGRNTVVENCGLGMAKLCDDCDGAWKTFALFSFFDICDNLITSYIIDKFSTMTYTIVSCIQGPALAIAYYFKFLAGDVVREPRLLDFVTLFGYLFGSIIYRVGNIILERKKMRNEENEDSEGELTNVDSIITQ
Chain of PfCRT^3D7 (Q8IBZ9 59-398): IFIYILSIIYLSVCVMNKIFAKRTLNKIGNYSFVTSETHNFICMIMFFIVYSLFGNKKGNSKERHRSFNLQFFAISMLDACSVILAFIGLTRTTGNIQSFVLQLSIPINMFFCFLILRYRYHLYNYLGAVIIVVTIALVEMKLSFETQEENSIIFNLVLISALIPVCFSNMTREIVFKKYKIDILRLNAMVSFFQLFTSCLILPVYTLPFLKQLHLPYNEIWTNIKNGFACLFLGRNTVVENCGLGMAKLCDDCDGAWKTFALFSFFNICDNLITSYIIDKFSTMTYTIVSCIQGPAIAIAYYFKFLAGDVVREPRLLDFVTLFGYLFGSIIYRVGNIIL

Substance | [3H]CQ transport, non-expressing oocytes (non-expressing oocytes; Experiment 1) | [3H]CQ transport, non-expressing oocytes (non-expressing oocytes; Experiment 2) | [3H]CQ transport, non-expressing oocytes (non-expressing oocytes; Experiment 3) | [3H]CQ transport, non-expressing oocytes (non-expressing oocytes; Experiment 4) | [3H]CQ transport, PfNT1 (PfNT1; Experiment 1) | [3H]CQ transport, PfNT1 (PfNT1; Experiment 2) | [3H]CQ transport, PfNT1 (PfNT1; Experiment 3) | [3H]CQ transport, PfNT1 (PfNT1; Experiment 4) | [3H]CQ transport, PfCRTDd2 (PfCRT^Dd2; Experiment 1) | [3H]CQ transport, PfCRTDd2 (PfCRT^Dd2; Experiment 2) | [3H]CQ transport, PfCRTDd2 (PfCRT^Dd2; Experiment 3) | [3H]CQ transport, PfCRTDd2 (PfCRT^Dd2; Experiment 4) | [3H]CQ transport, PfCRTEcu1110 (PfCRT^Ecu1110; Experiment 1) | [3H]CQ transport, PfCRTEcu1110 (PfCRT^Ecu1110; Experiment 2) | [3H]CQ transport, PfCRTEcu1110 (PfCRT^Ecu1110; Experiment 3) | [3H]CQ transport, PfCRTEcu1110 (PfCRT^Ecu1110; Experiment 4) | [3H]CQ transport, PfCRT3D7 (PfCRT^3D7; Experiment 1) | [3H]CQ transport, PfCRT3D7 (PfCRT^3D7; Experiment 2) | [3H]CQ transport, PfCRT3D7 (PfCRT^3D7; Experiment 3) | [3H]CQ transport, PfCRT3D7 (PfCRT^3D7; Experiment 4)
DPVNF [VF-6-derived peptide] | 2.53 % PfCRTDd2 control | 2.61 % PfCRTDd2 control | 2.41 % PfCRTDd2 control | 2.43 % PfCRTDd2 control | 3.85 % PfCRTDd2 control | 3.98 % PfCRTDd2 control | 3.94 % PfCRTDd2 control | 3.99 % PfCRTDd2 control | 116.36 % PfCRTDd2 control | 119.52 % PfCRTDd2 control | 110.63 % PfCRTDd2 control | 125.53 % PfCRTDd2 control | 45.52 % PfCRTDd2 control | 43.68 % PfCRTDd2 control | 37.35 % PfCRTDd2 control | 43.35 % PfCRTDd2 control | 17.63 % PfCRTDd2 control | 14.86 % PfCRTDd2 control | 18.47 % PfCRTDd2 control | 17.33 % PfCRTDd2 control
VDPVN [VF-6-derived peptide] | 2.84 % PfCRTDd2 control | 2.91 % PfCRTDd2 control | 2.78 % PfCRTDd2 control | 2.94 % PfCRTDd2 control | 2.85 % PfCRTDd2 control | 2.88 % PfCRTDd2 control | 2.95 % PfCRTDd2 control | 2.89 % PfCRTDd2 control | 120.53 % PfCRTDd2 control | 112.56 % PfCRTDd2 control | 120.67 % PfCRTDd2 control | 119.43 % PfCRTDd2 control | 40.67 % PfCRTDd2 control | 44.84 % PfCRTDd2 control | 45.43 % PfCRTDd2 control | 46.24 % PfCRTDd2 control | 18.56 % PfCRTDd2 control | 19.52 % PfCRTDd2 control | 15.43 % PfCRTDd2 control | 18.35 % PfCRTDd2 control
PVNF [VF-6-derived peptide] | 2.32 % PfCRTDd2 control | 2.21 % PfCRTDd2 control | 2.25 % PfCRTDd2 control | 2.16 % PfCRTDd2 control | 3.55 % PfCRTDd2 control | 3.73 % PfCRTDd2 control | 3.85 % PfCRTDd2 control | 3.52 % PfCRTDd2 control | 115.75 % PfCRTDd2 control | 122.53 % PfCRTDd2 control | 112.64 % PfCRTDd2 control | 109.74 % PfCRTDd2 control | 47.86 % PfCRTDd2 control | 40.15 % PfCRTDd2 control | 37.75 % PfCRTDd2 control | 41.78 % PfCRTDd2 control | 16.17 % PfCRTDd2 control | 15.91 % PfCRTDd2 control | 16.12 % PfCRTDd2 control | 16.15 % PfCRTDd2 control

Reference: article PMC7413254 (Nature Communications, 2020)
